Experimental data taken from publication PMC11868595, “Safety, pharmacokinetics and efficacy of HA121-28 in patients with advanced solid tumors and RET fusion-positive non-small-cell lung cancer: a multicenter, open-label, single-arm phase 1/2 trial” (Signal Transduction and Targeted Therapy, 2025).
Where two headings read alike, the source gives them in different places.

What was measured:
[1] = Ames test; conditions: in vitro Ames test
[2] = tested on: KYSE-150 cells; experiment: Tumor cell proliferation in vitro; format: cell-based, human
[3] = Metabolites in plasma; conditions: rats
[4] = Rat plasma kinetics; format: in vivo

With `COc1cc2c(Nc3ccc(Br)cc3F)ncnc2cc1OCCCCN(C)C.Cl.Cl` [HA121-28, N-(4-bromo-2-fluorophenyl)-7-(4-(dimethylamino)butoxy)-6-methoxy quinazolin-4-amine dihydrochloride] the genetic toxicity [1] was “negative”, the IC50 ([2]; KYSE-150, metabolite comparison, read-out: IC50) was 1080 nM and the IC50 ([2]; KYSE-150, read-out: IC50) was 1080 ± 220 nM. The IC50 ([2]; KYSE-150, read-out: IC50, proliferation) was 1080 ± 220 nM, the “number of metabolites found in plasma” value [3] was 7 and the AUC0-96h ([4]; 7 consecutive days (10 mg/kg)) was 8420 ± 1720 ng·h/mL. For the same compound, the “AUC0-∞” value ([4]; 7 consecutive days (10 mg/kg)) was 9690 ± 2310 ng·h/mL, the CL ([4]; 7 consecutive days (10 mg/kg)) was 2.36 ± 0.392 L/h/kg and the Cmax ([4]; 7 consecutive days (10 mg/kg)) was 284 ± 56.8 ng/mL. The “MRT0-∞” value ([4]; 7 consecutive days (10 mg/kg)) was 40.0 ± 7.30 h, the Tmax ([4]; 7 consecutive days (10 mg/kg)) was 6.00 ± 0.00 h and the Vd ([4]; 7 consecutive days (10 mg/kg)) was 110 ± 24.9 L/kg. For the same compound, the t1/2 ([4]; 7 consecutive days (10 mg/kg)) was 32.9 ± 7.77 h, the AUC0-96h ([4]; high dose (20 mg/kg)) was 6460 ± 849 ng·h/mL and the “AUC0-∞” value ([4]; high dose (20 mg/kg)) was 6760 ± 1040 ng·h/mL. For the same compound, the CL ([4]; high dose (20 mg/kg)) was 3.02 ± 0.483 L/h/kg, the Cmax ([4]; high dose (20 mg/kg)) was 288 ± 38.5 ng/mL and the MRT0-96h ([4]; high dose (20 mg/kg)) was 22.8 ± 2.85 h. For the same compound, the “MRT0-∞” value ([4]; high dose (20 mg/kg)) was 27.3 ± 5.24 h, the Tmax ([4]; high dose (20 mg/kg)) was 5.00 ± 1.55 h and the Vd ([4]; high dose (20 mg/kg)) was 96.8 ± 8.19 L/kg. The t1/2 ([4]; high dose (20 mg/kg)) was 22.8 ± 5.00 h, the AUC0-96h ([4]; intravenous (5 mg/kg)) was 1440 ± 214 ng·h/mL and the “AUC0-∞” value ([4]; intravenous (5 mg/kg)) was 1470 ± 232 ng·h/mL. It also gave a C5min ([4]; intravenous (5 mg/kg)) of 246 ± 43.1 ng/mL, a CL ([4]; intravenous (5 mg/kg)) of 3.47 ± 0.528 L/h/kg and an MRT0-96h ([4]; intravenous (5 mg/kg)) of 17.2 ± 1.68 h. For the same compound, the “MRT0-∞” value ([4]; intravenous (5 mg/kg)) was 19.0 ± 2.82 h, the Vd ([4]; intravenous (5 mg/kg)) was 90.9 ± 12.3 L/kg and the t1/2 ([4]; intravenous (5 mg/kg)) was 18.5 ± 3.86 h. For the same compound, the AUC0-96h ([4]; low dose (5 mg/kg)) was 1350 ± 419 ng·h/mL, the “AUC0-∞” value ([4]; low dose (5 mg/kg)) was 1390 ± 438 ng·h/mL and the CL ([4]; low dose (5 mg/kg)) was 3.91 ± 1.19 L/h/kg. For the same compound, the Cmax ([4]; low dose (5 mg/kg)) was 58.7 ± 12.7 ng/mL, the MRT0-96h ([4]; low dose (5 mg/kg)) was 19.2 ± 2.41 h and the “MRT0-∞” value ([4]; low dose (5 mg/kg)) was 21.5 ± 3.23 h. For the same compound, the Tmax ([4]; low dose (5 mg/kg)) was 5.00 ± 1.10 h, the Vd ([4]; low dose (5 mg/kg)) was 93.5 ± 15.9 L/kg and the t1/2 ([4]; low dose (5 mg/kg)) was 17.4 ± 3.52 h. The AUC0-96h ([4]; medium dose (10 mg/kg)) was 3200 ± 629 ng·h/mL, the “AUC0-∞” value ([4]; medium dose (10 mg/kg)) was 3300 ± 696 ng·h/mL and the CL ([4]; medium dose (10 mg/kg)) was 3.15 ± 0.695 L/h/kg. For the same compound, the Cmax ([4]; medium dose (10 mg/kg)) was 147 ± 26.6 ng/mL, the MRT0-96h ([4]; medium dose (10 mg/kg)) was 21.8 ± 2.80 h and the “MRT0-∞” value ([4]; medium dose (10 mg/kg)) was 24.7 ± 4.71 h. It also gave a Tmax ([4]; medium dose (10 mg/kg)) of 4.50 ± 1.22 h, a Vd ([4]; medium dose (10 mg/kg)) of 82.8 ± 9.31 L/kg and a t1/2 ([4]; medium dose (10 mg/kg)) of 18.8 ± 3.60 h. The “F (oral bioavailability)” value ([4]; rat) was 93.8%.
